Experimental data published in patent publication US7531544B2, “Xanthine phosphodiesterase V inhibitors” (Schering Corporation, priority 2000, dated 2009).

Target: PDE V (Homo sapiens, UniProt O76074)
Assay: PDE V enzyme inhibition (PDE V IC50)
Format: biochemical

Structure (SMILES)	IC50
COc1ccc(Cn2c(N[C@@H]3CCc4ccccc43)nc3c2c(=O)n(C)c(=O)n3C)cc1 [Compound 95]	5 to 10 nM
COc1ccc(Cn2c(NC3CCCC3CO)nc3c2c(=O)n(C)c(=O)n3C)cc1 (centres unmarked) [Compound 13]	15 to 100 nM
